The structures appear in SMILES notation. Where a name gives a salt, the structure may show the parent alone.

Test [1] deals with T1, RARalpha (Homo sapiens, UniProt P10276).
T1 sequence (P10276 183-417 limits assumed): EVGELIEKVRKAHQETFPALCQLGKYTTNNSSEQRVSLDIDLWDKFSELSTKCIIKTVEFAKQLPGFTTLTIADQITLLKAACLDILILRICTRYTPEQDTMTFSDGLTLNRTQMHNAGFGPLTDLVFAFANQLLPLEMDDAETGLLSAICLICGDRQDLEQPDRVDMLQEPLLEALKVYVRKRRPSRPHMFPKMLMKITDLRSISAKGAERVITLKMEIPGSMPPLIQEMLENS
The test can be described thus: Transactivation test (Kdapp), RARalpha. As to conditions: HeLa stable transfectants, luciferase reporter, crossed curves against reference agonist, Schild regression. Type of test: cell-based. As to the method: (§1) The activation of receptors with an agonist (activator) in HeLa cells leads to the expression of a reporter gene, luciferase, which, in the presence of a substrate, generates light. The activation of the receptors may thus be measured by quantifying the luminescence produced after incubating the cells in the presence of a reference agonist. The inhibitory products displace the agonist from its site, thus preventing activation of the receptor. The activity is measured by quantifying the reduction in light produced. This measurement makes it possible to determine the inhibitory activity of the compounds according to the invention.
(§2) In this study, a constant is determined which is the affinity of the molecule for the receptor. Since this value can fluctuate depending on the basal activity and the expression of the receptor, it is referred to as the Kd apparent (KdApp).
(§3) To determine this constant, “crossed curves” of the test product against a reference agonist, 4-[2-(5,5,8,8-tetramethyl-5,6,7,8-tetrahydro-2-naphthyl)propenyl]benzoic acid, are performed in 96-well plates. The test product is used at 10 concentrations and the reference agonist at 7 concentrations. In each well, the cells are in contact with a concentration of the test product and a concentration of the reference agonist, 4-[2-(5,5,8,8-tetramethyl-5,6,7,8-tetrahydro-2-naphthyl)propenyl]benzoic acid. Measurements are also taken for the total agonist (4-[2-(5,5,8,8-tetramethyl-5,6,7,8-tetrahydro-2-naphthyl)propenyl]benzoic acid) and inverse agonist, 4-{(E)-3-[4-(4-tert-butylphenyl)-5,5,8,8-tetramethyl-5,6,7,8-tetrahydro-2-naphthyl]-3-oxopropenyl}benzoic acid, controls.
(§4) The HeLa cell lines used are stable transfectants containing the plasmids ERE-βGlob-Luc-SV-Neo (reporter gene) and RAR (α, β, γ) ER-DBD-puro. These cells are inoculated into 96-well plates at a rate of 10,000 cells per well in 100 μl of DMEM medium without phenol red, and supplemented with 10% defatted calf serum. The plates are then incubated at 37° C. and 7% CO2 for 4 hours.
(§5) The plates are then incubated for 18 hours at 37° C. and 7% CO2.
(§6) The culture medium is removed by turning over and 100 μl of a 1:1 PBS/luciferine mixture is added to each well. After 5 minutes, the plates are read using the luminescence reader.
(In a reporter assay the amount or activity of a reporter protein is the signal.)

In test [2] the target is T2, RARbeta (Homo sapiens, UniProt P10826).
T2 sequence (P10826 183-417 limits assumed): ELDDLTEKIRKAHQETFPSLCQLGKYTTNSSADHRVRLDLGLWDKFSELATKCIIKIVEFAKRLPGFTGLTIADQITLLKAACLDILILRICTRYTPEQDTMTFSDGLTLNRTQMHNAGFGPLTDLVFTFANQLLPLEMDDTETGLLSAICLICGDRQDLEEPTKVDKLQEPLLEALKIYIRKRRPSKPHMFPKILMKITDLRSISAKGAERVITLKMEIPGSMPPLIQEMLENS
The experiment in a line: Transactivation test (Kdapp), RARbeta. The class given is cell-based. The conditions noted are these: HeLa stable transfectants, luciferase reporter, crossed curves against reference agonist, Schild regression. The procedure: as §1, §2, §3, §4, §5, §6

For the molecule `CCN(CC)c1ccc(-c2cc(-c3ccc(C(=O)O)cc3)ccc2CCCO)cc1C(C)(C)C` [Example 52, [3″-tert-butyl-4-carboxy-4′-(3-hydroxypropyl)-[1,1′;3′,1″]terphenyl-4″-yl]diethylamine hydrochloride], the Kd came out at 30 nM in test [1] (hydrochloride) and 2 nM in test [2] (hydrochloride). On to `CCN(C(C)=O)c1ccc(-c2cc(-c3ccc(C(=O)O)cc3)ccc2CCCNC2CC2)cc1C(C)(C)C` [Example 47, 4″-(acetylethylamino)-3″-tert-butyl-4′(3-cyclopropylaminopropyl)[1,1′;3′,1″]terphenyl-4-carboxylic acid], for which the Kd in test [2] is 250 nM. For the molecule `CCNc1ccc(-c2cc(-c3ccc(C(=O)O)cc3)ccc2OCCCO)cc1C(C)(C)C` [Example 54, 3″-tert-butyl-4″-ethylamino-4′-(3-hydroxypropoxy)-[1,1′;3′,1″]terphenyl-4-carboxylic acid], the Kd in test [1] worked out at 8 nM; in test [2] it was 4 nM. In the case of `CCN(CC)c1ccc(-c2cc(-c3ccc(C(=O)O)cc3)ccc2OCCCO)cc1C` [Example 17, 4″-diethylamino-4′-(3-hydroxypropoxy)-3″-methyl[1,1′;3′,1″]terphenyl-4-carboxylic acid], the Kd was 250 nM in test [1] and 8 nM in test [2]. As to `CCN(C(C)=O)c1ccc(-c2cc(-c3ccc(C(=O)O)cc3)ccc2OCCCCO)cc1C(C)(C)C` [Example 5, 4″-(acetylethylamino)-3″-tert-butyl-4′-(4-hydroxybutoxy)-[1,1′;3′,1″]terphenyl-4-carboxylic acid], the Kd in test [1] and in test [2] was 8 nM throughout. For `CCc1cc(-c2cc(-c3ccc(C(=O)O)cc3)ccc2OCCO)ccc1N(CC)CC` [Example 13, 4″-diethylamino-3″-ethyl-4′-(2-hydroxyethoxy)-[1,1′;3′,1″]terphenyl-4-carboxylic acid], the Kd in test [1] was determined as 500 nM; in test [2] it was 4 nM.

As for `CCN(CC)c1ccc(-c2cc(-c3ccc(C(=O)O)cc3)ccc2CC(O)CO)cc1C(C)(C)C` (centres unmarked) [Example 35, 3″-tert-butyl-4″-diethylamino-4′-(2,3-dihydroxypropyl)-[1,1′;3′,1″]terphenyl-4-carboxylic acid], the Kd in test [1] was 4000 nM; in test [2] it was 500 nM. On to `CCN(C(C)=O)c1ccc(-c2cc(-c3ccc(C(=O)O)cc3)ccc2CCCO)cc1C(C)(C)C` [Example 37, 4″-(acetylethylamino)-3″-tert-butyl-4′-(3-hydroxypropyl)-[1,1′;3′,1″]terphenyl-4-carboxylic acid], for which the Kd in test [1] turned out to be 250 nM; in test [2], 120 nM. Consider `CCN(CC)c1ccc(-c2cc(-c3ccc(C(=O)O)cc3)ccc2CCCO)cc1C(C)(C)C` [Example 33, 3″-tert-butyl-4″-diethylamino-4′-(3-hydroxypropyl)-[1,1′;3′,1″]terphenyl-4-carboxylic acid], for which the Kd worked out at 60 nM in test [1] and 8 nM in test [2].
